Assay results from patent US6653258B1 (priority 1987, dated 2003).

What was measured:
Erysiphe graminis = test: Foliar fungal disease test on Erysiphe graminis, plants inoculated 24 hours before treatment (Table V); type: in vivo; set-up: key: 4: no disease; 3: trace −5% of disease on untreated plants; 6-25% of disease on untreated plants; 1: 26-59% of disease on untreated plants; 60-100% of disease on untreated plants; conditions: plants inoculated 24 hours before treatment
[1] = system: foliar fungal diseases of plants; type: in vivo; set-up: key to disease control grading, […] (VINE): 4: no disease; 3: trace −5% of disease on untreated plants; key to disease control grading, PUCCINIA RECONDITA (WHEAT) / disease control grading, VENTURIA INAEQUALIS (APPLE) / disease control grading, CERCOSPORA ARACHIDICOLA (PEANUT) / disease control grading, PH[…] (TOMATO) / disease control grading, P[…] (RICE): 4: no disease; 3: trace −5% of disease on untreated plants; 6-25% of disease on untreated plants; 1: 26-59% of disease on untreated plants; 60-100% of disease on untreated plants; conditions: applied to soil (roots) and foliage one or two days before inoculation; for disease control grading, CERCOSPORA ARACHIDICOLA (PEANUT): Cercospora arachidicola on peanut; for disease control grading, P[…] (RICE): P[…] on rice; for disease control grading, PH[…] (TOMATO): Ph[…] on tomato; for disease control grading, PUCCINIA RECONDITA (WHEAT): Puccinia recondita on wheat; for disease control grading, VENTURIA INAEQUALIS (APPLE): Venturia inaequalis on apple; for disease control grading, […] (VINE): […] on vine
various species of plant = test: Plant growth regulating whole plant screen (Table VIII); type: in vivo; conditions: 4000 ppm (4 kg/ha) spray, assessed after 2-6 weeks
Description: This Example illustrates the plant growth regulating properties of compounds 1, 23 and 68 of Table I when tested on a whole plant screen against various species of plant. The plant species are identified in Table VII with the leaf stage at which they are sprayed.
A formulation of each chemical was applied at 4000 ppm (4 kg/ha in a 1000 l/ha field volume) using a tracksprayer and a SS8004E (Teejet) nozzle.
After spraying the plants were grown in a glasshouse with 25° C. day/22° C. night temperature. Supplementary lighting was supplied when necessary to provide an average photoperiod of 16 hours (14 hours minimum).
After 2-6 weeks in the glasshouse, depending on species and time of year, the plants were visually assessed for morphological characteristics against a control of plant sprayed with a blank formulation.

[2] = system: Tomato plants, cv. Outdoor Girl; test: Phytotoxicity on tomato plants, spray to maximum retention (Table VII); conditions: for phytotoxicity, linear 0-5 scale, Tomato: assessed one week after treatment, four replicates
[3] = system: Peanut plants, cv. Tomnut; test: Phytotoxicity on peanut plants, root drench (Table VI); type: in vivo; conditions: for phytotoxicity, linear 0-5 scale, Peanut: 100 ppm root drench, assessed one week after treatment, four replicates
Description: Peanut plants, cv. Tomnut, were propagated in John Innes No. 1 compost. […] Uniform, 8-10 day-old plants were selected for the experiments.
Phytotoxicity was assessed on a linear 0- 5 scale where grade 1 ═slight damage and grade 5 ═dead plant.

[4] = 30 ppm spray to maximum retention
[5] = 100 ppm spray to maximum retention
[6] = 300 ppm spray to maximum retention

| Compound | disease control grading, ERYSIPHE GRAMINIS (BARLEY) (Erysiphe graminis) | disease control grading, CERCOSPORA ARACHIDICOLA (PEANUT) [1] | disease control grading, P[…] (RICE) [1] | disease control grading, PH[…] (TOMATO) [1] | disease control grading, PUCCINIA RECONDITA (WHEAT) [1] | disease control grading, VENTURIA INAEQUALIS (APPLE) [1] | disease control grading, […] (VINE) [1] | phytotoxicity, linear 0-5 scale, Tomato [2, 4] | phytotoxicity, linear 0-5 scale, Tomato [2, 5] | phytotoxicity, linear 0-5 scale, Tomato [2, 6] | phytotoxicity, linear 0-5 scale, Peanut [3] | further results |
| --- | --- | --- | --- | --- | --- | --- | --- | --- | --- | --- | --- | --- |
| CO/C=C(/C(=O)OC)c1ccccc1COc1cccc(Cl)c1 [1 (Table I)] | 4 | 4 | 4 | 4 | 4 | 4 | 4 |  |  |  |  | G = Greening effect (various species of plant; Maize (MZ, Earliking)): 1 (1 = 10-30%); I = Interligular or internodal length reduction (various species of plant; Maize (MZ, Earliking)): 1 (1 = 10-30%); R = Retardation (various species of plant; Maize (MZ, Earliking)): 1 (1 = 10-30%); A = Apical damage (various species of plant; Tomato (TO, Ailsa Craig)): 3 (3 = 61-100%); P = Phytotoxicity (various species of plant; Tomato (TO, Ailsa Craig)): 2 (2 = 11-30%); R = Retardation (various species of plant; Tomato (TO, Ailsa Craig)): 3 (3 = 61-100%); T = Tillering or side shooting (various species of plant; Tomato (TO, Ailsa Craig)): 1 (1 = 10-30%) |
| CO/C=C(/C(=O)OC)c1ccccc1COc1ccccc1 [comparative compound, reference compound] |  |  |  |  |  |  |  | 2.8 | 3.4 | 3.0 | 1.5 |  |
| CO/C=C(/C(=O)OC)c1ccccc1COc1cccc(Cl)c1 [Compound 1, Table I] |  |  |  |  |  |  |  | 0.75 | 0.63 | 1.5 | 0 |  |
| CO/C=C(/C(=O)OC)c1ccccc1COc1ccc(Cl)cc1 [23 (Table I)] | 4 | 4 | 4 | 4 | 4 | 4 | 4 |  |  |  |  | A = Apical damage (various species of plant; Tomato (TO, Ailsa Craig)): 3 (3 = 61-100%); P = Phytotoxicity (various species of plant; Tomato (TO, Ailsa Craig)): 3 (3 = 31-50%); R = Retardation (various species of plant; Tomato (TO, Ailsa Craig)): 3 (3 = 61-100%) |
| CO/C=C(/C(=O)OC)c1ccccc1COc1cccc(Cl)c1 [Compound No. 1 of Table I, (E)-methyl 2-[2-(3-chlorophenoxymethyl)phenyl]-3-methoxypropenoate] |  |  |  |  |  |  |  |  |  |  |  | phytotoxicity relative to the unsubstituted comparative compound ([2]; sprayed to maximum retention, assessed one week after (final) treatment (conclusion from Table VII)): less phytotoxic; phytotoxicity relative to the unsubstituted comparative compound ([3]; root drench, assessed one week after treatment (conclusion from Table VI)): less phytotoxic |
| CO/C=C(/C(=O)OC)c1ccccc1COc1ccc(Cl)cc1 [Compound 23, Table I] |  |  |  |  |  |  |  | 0.3 | 1.5 | 2.3 | 0.13 |  |
| CO/C=C(/C(=O)OC)c1ccccc1COc1cccnc1 [68 (Table I)] | 4 | 3 (trace −5% of disease on untreated plants) | 3 (trace −5% of disease on untreated plants) | 3 (trace −5% of disease on untreated plants) | 3 (trace −5% of disease on untreated plants) | 4 | 4 |  |  |  |  | T = Tillering or side shooting (various species of plant; Barley (BR, Atem)): 1 (1 = 10-30%) |
